Test results reported in ChEMBL document CHEMBL5390304, “Phenyl-quinoline-xxo-butyric Acid Inhibitors of Histone Lysine Demethylase for the Treatment of Cancer” (ACS Med Chem Lett, 2023).

What was measured:
[1] = target: T1, Lysine-specific demethylase 4A (Homo sapiens, UniProt O75164); assay: Inhibition of human recombinant KDM4A assessed as decarboxylation of [1-14C] alphaKG at pH 7.4 using H3K9me3 as substrates incubated for 1 hr
T1 sequence (O75164 whole entry): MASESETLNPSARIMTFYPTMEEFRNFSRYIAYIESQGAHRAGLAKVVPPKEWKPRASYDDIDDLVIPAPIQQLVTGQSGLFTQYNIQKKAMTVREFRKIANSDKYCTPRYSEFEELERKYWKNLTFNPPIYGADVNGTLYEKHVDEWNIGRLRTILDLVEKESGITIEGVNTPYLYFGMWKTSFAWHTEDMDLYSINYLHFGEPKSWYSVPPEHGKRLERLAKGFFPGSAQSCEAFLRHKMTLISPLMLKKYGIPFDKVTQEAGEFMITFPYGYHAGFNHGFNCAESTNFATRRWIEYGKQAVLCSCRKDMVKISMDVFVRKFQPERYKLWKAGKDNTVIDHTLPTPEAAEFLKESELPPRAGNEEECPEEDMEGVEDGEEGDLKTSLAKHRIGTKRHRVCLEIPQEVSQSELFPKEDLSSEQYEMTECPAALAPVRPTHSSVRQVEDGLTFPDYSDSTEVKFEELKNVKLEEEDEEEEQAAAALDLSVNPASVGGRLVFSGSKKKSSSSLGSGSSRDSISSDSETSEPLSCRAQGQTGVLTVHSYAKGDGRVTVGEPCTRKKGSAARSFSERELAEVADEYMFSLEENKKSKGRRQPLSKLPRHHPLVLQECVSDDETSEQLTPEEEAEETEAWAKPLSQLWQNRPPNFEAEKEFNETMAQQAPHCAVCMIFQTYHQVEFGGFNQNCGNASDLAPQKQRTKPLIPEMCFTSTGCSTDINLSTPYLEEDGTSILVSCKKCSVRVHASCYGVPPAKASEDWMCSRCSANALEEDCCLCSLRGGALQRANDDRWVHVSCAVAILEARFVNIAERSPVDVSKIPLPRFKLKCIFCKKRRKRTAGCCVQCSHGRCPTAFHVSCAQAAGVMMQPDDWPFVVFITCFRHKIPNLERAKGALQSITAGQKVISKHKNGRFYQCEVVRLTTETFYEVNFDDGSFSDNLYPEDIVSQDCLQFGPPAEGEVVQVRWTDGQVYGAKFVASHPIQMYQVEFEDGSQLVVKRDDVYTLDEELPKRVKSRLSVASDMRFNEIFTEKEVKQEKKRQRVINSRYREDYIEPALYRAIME

[2] = target: Lysine-specific demethylase 5B (Homo sapiens, UniProt Q9UGL1); assay: Inhibition of human recombinant KDM5B assessed as decarboxylation of [1-14C] alphaKG by measuring 14CO2 release using H3K4me3 as substrate incubated for 1 hr
Sequence of Lysine-specific demethylase 5B (Q9UGL1 whole entry): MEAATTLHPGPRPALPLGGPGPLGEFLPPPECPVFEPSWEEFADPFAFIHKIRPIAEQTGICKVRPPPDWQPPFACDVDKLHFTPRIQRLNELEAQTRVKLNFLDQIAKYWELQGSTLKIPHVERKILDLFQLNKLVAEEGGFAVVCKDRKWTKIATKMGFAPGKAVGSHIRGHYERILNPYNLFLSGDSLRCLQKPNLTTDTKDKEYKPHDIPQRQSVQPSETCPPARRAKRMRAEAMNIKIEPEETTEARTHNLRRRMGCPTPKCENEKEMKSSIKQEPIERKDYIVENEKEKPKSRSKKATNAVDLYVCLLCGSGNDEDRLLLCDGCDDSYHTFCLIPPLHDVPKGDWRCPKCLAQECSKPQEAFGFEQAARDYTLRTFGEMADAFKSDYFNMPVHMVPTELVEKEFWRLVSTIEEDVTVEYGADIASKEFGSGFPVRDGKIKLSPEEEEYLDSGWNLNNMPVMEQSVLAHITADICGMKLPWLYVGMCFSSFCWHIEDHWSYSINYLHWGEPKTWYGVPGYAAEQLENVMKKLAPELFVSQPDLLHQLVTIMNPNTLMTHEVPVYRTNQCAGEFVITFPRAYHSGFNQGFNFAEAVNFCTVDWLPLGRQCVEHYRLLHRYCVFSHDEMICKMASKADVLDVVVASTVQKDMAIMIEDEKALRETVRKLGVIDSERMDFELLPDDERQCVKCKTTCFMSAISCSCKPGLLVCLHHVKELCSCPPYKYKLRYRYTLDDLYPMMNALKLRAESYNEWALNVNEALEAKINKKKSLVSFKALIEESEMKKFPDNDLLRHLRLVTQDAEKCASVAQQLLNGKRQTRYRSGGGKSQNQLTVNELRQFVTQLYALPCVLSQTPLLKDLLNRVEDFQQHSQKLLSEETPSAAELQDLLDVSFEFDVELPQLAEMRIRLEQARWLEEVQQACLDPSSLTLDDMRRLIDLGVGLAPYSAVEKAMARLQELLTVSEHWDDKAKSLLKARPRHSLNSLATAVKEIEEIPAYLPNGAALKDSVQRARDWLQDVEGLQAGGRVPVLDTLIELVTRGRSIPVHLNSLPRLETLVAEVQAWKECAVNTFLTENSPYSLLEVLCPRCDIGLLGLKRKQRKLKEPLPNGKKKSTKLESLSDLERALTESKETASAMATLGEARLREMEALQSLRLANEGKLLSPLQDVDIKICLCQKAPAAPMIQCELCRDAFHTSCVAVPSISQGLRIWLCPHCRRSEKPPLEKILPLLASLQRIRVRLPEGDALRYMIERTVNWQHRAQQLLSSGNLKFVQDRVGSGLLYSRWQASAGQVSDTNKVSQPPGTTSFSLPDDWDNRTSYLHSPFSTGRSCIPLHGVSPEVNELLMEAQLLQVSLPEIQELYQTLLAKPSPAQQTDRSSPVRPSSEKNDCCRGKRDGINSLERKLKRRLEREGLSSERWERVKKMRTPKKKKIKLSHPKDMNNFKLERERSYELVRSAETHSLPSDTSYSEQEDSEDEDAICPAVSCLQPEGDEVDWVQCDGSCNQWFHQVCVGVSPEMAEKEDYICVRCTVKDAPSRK

IC50 [1] [nM]	IC50 [2] [nM]	SMILES
22000	230	Cc1cccc(-c2ccc3c(C#N)c(O)c(C(=O)CCC(=O)O)nc3c2)c1
> 40000	150	N#Cc1c(O)c(C(=O)CCC(=O)O)nc2cc(Sc3ccccc3)ccc12
3900	90	N#Cc1c(O)c(C(=O)CCC(=O)O)nc2cc(-c3ccccc3)ccc12
> 40000	370	Cc1cc(C)cc(-c2ccc3c(C#N)c(O)c(C(=O)CCC(=O)O)nc3c2)c1
40000	130	N#Cc1c(O)c(C(=O)CCC(=O)O)nc2ccccc12
> 40000	240	N#Cc1c(O)c(C(=O)CCC(=O)O)nc2cc(Cc3ccccc3)ccc12

More lines, now with the values behind:

SMILES	IC50 [1] [nM]	IC50 [2] [nM]
N#Cc1c(O)c(C(=O)CCC(=O)O)nc2ccc(-c3ccccc3)cc12	> 40000	310
N#Cc1c(O)c(C(=O)CCC(=O)O)nc2ccc(Cc3ccccc3)cc12	> 40000	970
COc1ccc(-c2ccc3c(C#N)c(O)c(C(=O)CCC(=O)O)nc3c2)cc1	> 40000	220
O=C(O)CCC(=O)c1nc2cc(-c3ccccc3)ccc2cc1O	> 40000	> 40000
N#Cc1ccc(-c2cccc3c(C#N)c(O)c(C(=O)CCC(=O)O)nc23)cc1	7900	130
